Columns and labels:
[1] = tested on: pancreatic ductal adenocarcinoma xenograft; details: combination therapy of VS-5584 with ERK inhibitor SCH772984; cited from earlier work
[2] = Stability of VS-5584 in rat plasma (QC samples, UPLC-MS/MS); type: in vitro ADME; details: for Stability RE (%): n = 3
Experimental: Quality control (QC) samples were prepared at LLOQ, low, medium, and high concentrations (1.0, 2.0, 200, and 800 ng/mL) separately in the same manner. The IS working solution was prepared in acetonitrile at a concentration of 40 ng/mL.
Stability studies were conducted under a variety of different conditions. The accuracy and precision under the above conditions should be within ±15%.

Row | Structure (SMILES) | tumor suppression rate [1] [%] | stability of processed samples (in words) ([2]; 4°C in an autosampler for 12 h) | Stability RE (%) ([2]; processed samples, 4°C in autosampler for 12 h, spiked 2.0 ng/mL) | Stability RE (%) ([2]; processed samples, 4°C in autosampler for 12 h, spiked 200 ng/mL) | Stability RE (%) ([2]; processed samples, 4°C in autosampler for 12 h, spiked 800 ng/mL) | Stability RE (%) ([2]; rat plasma, 12 h at room temperature, spiked 2.0 ng/mL) | Stability RE (%) ([2]; rat plasma, 12 h at room temperature, spiked 200 ng/mL) | Stability RE (%) ([2]; rat plasma, 12 h at room temperature, spiked 800 ng/mL) | Stability RE (%) ([2]; rat plasma, 30 days at −25°C, spiked 2.0 ng/mL) | Stability RE (%) ([2]; rat plasma, 30 days at −25°C, spiked 200 ng/mL) | Stability RE (%) ([2]; rat plasma, 30 days at −25°C, spiked 800 ng/mL) | Stability RE (%) ([2]; rat plasma, three freeze–thaw cycles, spiked 2.0 ng/mL) | Stability RE (%) ([2]; rat plasma, three freeze–thaw cycles, spiked 200 ng/mL) | Stability RE (%) ([2]; rat plasma, three freeze–thaw cycles, spiked 800 ng/mL) | stability in rat plasma (in words) ([2]; −25°C for 30 days, room temperature for 12 h, three freeze-thaw cycles)
1 | O=C(Nc1ccc2[nH]nc(-c3ccncc3)c2c1)[C@@H]1CCN(CC(=O)N2CCN(c3ccc(-c4ncccn4)cc3)CC2)C1 [SCH772984] | 80 |  |  |  |  |  |  |  |  |  |  |  |  |  | 
2 | Cc1nc2c(-c3cnc(N)nc3)nc(N3CCOCC3)nc2n1C(C)C [VS-5584] |  | remained intact | −8.7 | 10.4 | 9.9 | −7.0 | 10.7 | 9.2 | 9.4 | −12.2 | −5.7 | −6.5 | −6.5 | 7.4 | stable

Source: paper PMC7759402 (Journal of Analytical Methods in Chemistry, 2020)
